One data set deals with BACE1 (Homo sapiens, UniProt P56817). The data set is described as follows: In vitro enzymatic BACE FRET (fluorescence resonance energy transfer) assay. In kind it is biochemical. Summed up:
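Fluorescence (ex 488 nm, […]) was read after Tris addition raised pH to neutral, ending a one-hour incubation. Reaction started with 50 nM fluorophore/quencher peptide substrate in pH 4.2 acetate (0.05 M) containing 100 uM genapol and 10% DMSO final.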

Data set [1] has as its system Cells stably expressing Amyloid Precursor Protein (APP). In words: In vitro BACE cell-based assay (HEK cell assay): Aβ40 in conditioned medium by sandwich ELISA. An outline of the steps: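 Secreted Aβ40 was quantified by time-resolved fluorescence sandwich ELISA, capturing with pAb40 for 3 h at 4 °C and detecting with biotinylated 6E10 for 2 h at 4 °C. Media came from APP-expressing cells exposed 24 h to compounds (10-point series from 100 or 10 μM, 0.1% DMSO); IC50 derived from percent of control.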
On the technique in general: An ELISA detects its analyte on a solid surface through an enzyme-linked reagent.

Another data set deals with CYP3A4 (CYP3A) (Homo sapiens, UniProt P08684). The data set is described as follows: CYP3A inhibition assay (midazolam, pooled human liver microsomes). Type of data set: in vitro ADME. The settings on record: human, pooled human liver microsomes, pH 7.4, probe midazolam (printed as about […]); read-out: 3A4 IC50. A general note: Liver microsomes are a subcellular fraction often used to study metabolism.

Data set [2] can be described thus: Microsomal stability assay, human liver microsomes. In kind it is in vitro ADME. The source says: (§1) Microsomal Stability Assay
A short description of data set [3]: Microsomal stability assay, rat liver microsomes. Type of data set: in vitro ADME.
Description: as §1

Setting [4] is: Aβ40 in conditioned medium after 24 h incubation.
The mark [5] stands for this setting: Homo sapiens, HEK293, 24 h, Aβ40 in conditioned medium after 24 h incubation.

Molecules are shown by their SMILES. Read-outs that look alike come from different tables or passages of the source.

Sequence of CYP3A4 (CYP3A) (P08684 2-503): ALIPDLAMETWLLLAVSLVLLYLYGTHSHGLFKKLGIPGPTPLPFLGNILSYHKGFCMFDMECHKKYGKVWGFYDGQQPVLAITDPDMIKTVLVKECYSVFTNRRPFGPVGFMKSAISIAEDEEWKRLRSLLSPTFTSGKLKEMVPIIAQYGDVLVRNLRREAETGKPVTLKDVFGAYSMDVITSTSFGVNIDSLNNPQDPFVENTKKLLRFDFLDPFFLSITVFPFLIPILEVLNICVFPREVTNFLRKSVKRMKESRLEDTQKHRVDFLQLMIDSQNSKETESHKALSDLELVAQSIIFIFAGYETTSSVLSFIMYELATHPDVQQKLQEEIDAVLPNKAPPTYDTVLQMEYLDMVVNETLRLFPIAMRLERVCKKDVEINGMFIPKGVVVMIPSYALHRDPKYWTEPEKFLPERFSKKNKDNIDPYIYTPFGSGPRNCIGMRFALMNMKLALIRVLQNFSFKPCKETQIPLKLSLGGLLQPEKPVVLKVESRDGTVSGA
Sequence of BACE1 (P56817 46-501, species assumed): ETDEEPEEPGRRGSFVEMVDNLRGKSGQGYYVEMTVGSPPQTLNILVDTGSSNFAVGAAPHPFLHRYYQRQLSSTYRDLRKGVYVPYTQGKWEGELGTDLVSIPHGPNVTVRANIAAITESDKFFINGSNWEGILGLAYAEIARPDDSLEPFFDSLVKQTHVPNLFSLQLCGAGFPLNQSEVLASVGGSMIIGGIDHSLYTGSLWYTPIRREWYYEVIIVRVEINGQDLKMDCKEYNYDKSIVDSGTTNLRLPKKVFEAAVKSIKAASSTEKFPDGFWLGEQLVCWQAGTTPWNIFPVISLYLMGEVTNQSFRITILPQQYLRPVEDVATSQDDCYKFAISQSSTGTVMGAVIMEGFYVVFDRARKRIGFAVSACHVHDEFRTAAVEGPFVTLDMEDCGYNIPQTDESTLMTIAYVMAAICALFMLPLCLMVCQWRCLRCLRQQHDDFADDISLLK

Regarding `C=CC[C@H](NC(=O)[C@@H](C)F)[C@H](O)CN[C@H]1CC2(CCC2)Oc2ncc(CC(C)(C)C)cc21.C=CC[C@H](NC(=O)[C@H](C)F)[C@H](O)CN[C@H]1CC2(CCC2)Oc2ncc(CC(C)(C)C)cc21` [Example 148, (2R)-N-((1S)-1-((1R)-2-(((4′S)-6′-(2,2-dimethylpropyl)-3′,4′-dihydrospiro[cyclobutane-1,2′-pyrano[2,3-b]pyridin]-4′-yl)amino)-1-hydroxyethyl)-3-buten-1-yl)-2-fluoropropanamide; (2S)-N-((1S)-1-((1R)-2-(((4′S)-6′-(2,2-dimethylpropyl)-3′,4′-dihydrospiro[cyclobutane-1,2′-pyrano[2,3-b]pyridin]-4′-yl)amino)-1-hydroxyethyl)-3-buten-1-yl)-2-fluoropropanamide], the values for the IC50 (at BACE1; in data set [1] (setting [4])) were 70 nM and 121 nM, respectively.
As for `C=CC[C@H](NC(=O)[C@@H](OC)C(C)C)[C@H](O)CN[C@H]1CC2(CCC2)Oc2ncc(CC(C)(C)C)cc21` [Example 149, (2S)-N-((1S)-1-((1R)-2-(((4′S)-6′-(2,2-dimethylpropyl)-3′,4′-dihydrospiro[cyclobutane-1,2′-pyrano[2,3-b]pyridin]-4′-yl)amino)-1-hydroxyethyl)-3-buten-1-yl)-3-methyl-2-(methyloxy)butanamide], the IC50 turned out to be 934 nM on BACE1 and 1870 nM in data set [1] (setting [5]).
For the compound `C=CC[C@H](NC(=O)[C@H](OC)C(C)C)[C@H](O)CN[C@H]1CC2(CCC2)Oc2ncc(CC(C)(C)C)cc21` [Example 150, (2R)-N-((1S)-1-((1R)-2-(((4′S)-6′-(2,2-dimethylpropyl)-3′,4′-dihydrospiro[cyclobutane-1,2′-pyrano[2,3-b]pyridin]-4′-yl)amino)-1-hydroxyethyl)-3-buten-1-yl)-3-methyl-2-(methyloxy)butanamide], the IC50 is 2670 nM on BACE1 and 5280 nM in data set [1] (setting [5]).
The corresponding values for `C=CC[C@H](NC(=O)C1(OC)CC1)[C@H](O)CN[C@H]1CC2(CCC2)Oc2ncc(CC(C)(C)C)cc21` [Example 151, N-((1S)-1-((1R)-2-(((4′S)-6′-(2,2-dimethylpropyl)-3′,4′-dihydrospiro[cyclobutane-1,2′-pyrano[2,3-b]pyridin]-4′-yl)amino)-1-hydroxyethyl)-3-buten-1-yl)-1-(methyloxy)cyclopropanecarboxamide] are 454 nM and 878 nM.
As to `C=CCC(NC(=O)C1CN(C(=O)N2CCCCC2)CCO1)C(O)CNC1CC2(CCC2)Oc2ncc(CC(C)(C)C)cc21` (stereo not drawn) [Example 152], the IC50 at BACE1 came out at 12 nM; in data set [1] (setting [5]), 4 nM.
Take `C=CCC(NC(=O)C1CC1OCC)C(O)CNC1CC2(CCC2)Oc2ncc(CC(C)(C)C)cc21` [Example 153, (1R,2R)-N-((1S)-1-((1R)-2-(((4′S)-6′-(2,2-dimethylpropyl)-3′,4′-dihydrospiro[cyclobutane-1,2′-pyrano[2,3-b]pyridin]-4′-yl)amino)-1-hydroxyethyl)-3-buten-1-yl)-2-(ethyloxy)cyclopropanecarboxamide; (1S,2S)-N-((1S)-1-((1R)-2-(((4′S)-6′-(2,2-dimethylpropyl)-3′,4′-dihydrospiro[cyclobutane-1,2′-pyrano[2,3-b]pyridin]-4′-yl)amino)-1-hydroxyethyl)-3-buten-1-yl)-2-(ethyloxy)cyclopropanecarboxamide]: the IC50 on BACE1 amounted to 104 nM; in data set [1] (setting [5]), 129 nM.
Consider `C=CCC(NC(=O)C1CC1OCC)C(O)CNC1CC2(CCC2)Oc2ncc(CC(C)(C)C)cc21` [Example 154, (1R,2S)-N-((1S)-1-((1R)-2-(((4′S)-6′-(2,2-dimethylpropyl)-3′,4′-dihydrospiro[cyclobutane-1,2′-pyrano[2,3-b]pyridin]-4′-yl)amino)-1-hydroxyethyl)-3-buten-1-yl)-2-(ethyloxy)cyclopropanecarboxamide; (1S,2R)-N-((1S)-1-((1R)-2-(((4′S)-6′-(2,2-dimethylpropyl)-3′,4′-dihydrospiro[cyclobutane-1,2′-pyrano[2,3-b]pyridin]-4′-yl)amino)-1-hydroxyethyl)-3-buten-1-yl)-2-(ethyloxy)cyclopropanecarboxamide], for which the IC50 on BACE1 was 137 nM; in data set [1] (setting [4]), 242 nM.
Turning to `C=CCC(NC(=O)C1CN(C(C)=O)CCO1)C(O)CNC1CC2(CCC2)Oc2ncc(CC(C)(C)C)cc21` [Example 155, (2R)-4-acetyl-N-((1S)-1-((1R)-2-(((4′S)-6′-(2,2-dimethylpropyl)-3′,4′-dihydrospiro[cyclobutane-1,2′-pyrano[2,3-b]pyridin]-4′-yl)amino)-1-hydroxyethyl)-3-buten-1-yl)-2-morpholinecarboxamide; (2S)-4-acetyl-N-((1S)-1-((1R)-2-(((4′S)-6′-(2,2-dimethylpropyl)-3′,4′-dihydrospiro[cyclobutane-1,2′-pyrano[2,3-b]pyridin]-4′-yl)amino)-1-hydroxyethyl)-3-buten-1-yl)-2-morpholinecarboxamide], the IC50 on BACE1 came to 49 nM; in data set [1] (setting [5]), 60 nM.
Regarding `C=CCC(NC(=O)C1CN(C(=O)C(C)C)CCO1)C(O)CNC1CC2(CCC2)Oc2ncc(CC(C)(C)C)cc21` (stereo not drawn) [Example 156], the results for the IC50 (on BACE1; in data set [1] (setting [5])) were 28 nM and 33 nM, respectively.
In the case of `C=CC[C@H](NC(=O)COC)[C@H](O)CN[C@H]1CC2(CCC2)Oc2c1cc(CC(C)(C)C)cc2-n1ccnc1` [Example 216, N-((1S)-1-((1R)-2-(((4S)-6-(2,2-dimethylpropyl)-8-(1H-imidazol-1-yl)-3,4-dihydrospiro[chromene-2,1′-cyclobutan]-4-yl)amino)-1-hydroxyethyl)-3-buten-1-yl)-2-methoxyacetamide], the IC50 was 442 nM on BACE1 (read-out: BACE 1 FRET assay) and 328 nM in data set [1] (Homo sapiens, HEK293). Besides, on CYP3A4 (CYP3A), the IC50 at 10 min worked out at 200 nM. In data set [2], this compound returned an HLM of 49 µL/min/mg. Further, the RLM in data set [3] is 150 µL/min/mg.
`C#CC[C@H](NC(C)=O)[C@H](O)CNC1CC2(CCC2)Oc2c1cc(CC(C)(C)C)nc2NC` (stereo partly drawn) [Example 221]: the IC50 on BACE1 (read-out: BACE 1 FRET assay) is 78 nM; in data set [1] (Homo sapiens, HEK293), 58 nM. Also, at CYP3A4 (CYP3A), the IC50 at 10 min stood at 1900 nM. This compound also had an HLM in data set [2] of 61 µL/min/mg. For the same compound, the RLM in data set [3] came to 106 µL/min/mg.
For `C=CC[C@H](NC(=O)[C@@H](C)OC)[C@H](O)CN[C@H]1CC2(CCC2)Oc2c1cc(CC(C)C)cc2-n1ccnc1` [compound 208, (2R)-N-((1S)-1-((1R)-1-hydroxy-2-(((4S)-8-(1H-imidazol-1-yl)-6-(2-methylpropyl)-3,4-dihydrospiro[chromene-2,1′-cyclobutan]-4-yl)amino)ethyl)-3-buten-1-yl)-2-methoxypropanamide], the IC50 stood at 477 nM on BACE1 (read-out: BACE 1 FRET assay) and 416 nM in data set [1] (Homo sapiens, HEK293). In addition, the IC50 at 10 min on CYP3A4 (CYP3A) amounted to 200 nM. The same compound showed an HLM in data set [2] of 40.5 µL/min/mg. This compound displayed an RLM in data set [3] of 337 µL/min/mg.
On the same counts, the results for `C=CC[C@H](NC(=O)COC)[C@H](O)CN[C@H]1CC2(CCC2)Oc2c1cc(CC(C)C)cc2-n1ccnc1` [compound 209] are 338 nM, 328 nM, 100 nM, 31 µL/min/mg and 183 µL/min/mg.
On the same counts, the results for `C=CC[C@H](NC(=O)[C@@H](C)OC)[C@H](O)CN[C@H]1CC2(CCC2)Oc2c(-c3nccs3)cc(CC(C)C)cc21` [compound 210] are 92 nM, 1110 nM, 200 nM, 829 µL/min/mg and 644 µL/min/mg.
`C=CC[C@H](NC(=O)[C@H]1CCC(=O)O1)[C@H](O)CN[C@H]1CC2(CCC2)Oc2ncc(CC(C)(C)C)cc21` [compound 211]: the IC50 on BACE1 (read-out: BACE 1 FRET assay) amounted to 15 nM; in data set [1] (Homo sapiens, HEK293), 57 nM. Besides, the IC50 at 10 min at CYP3A4 (CYP3A) amounted to 1300 nM. This compound also displayed an HLM in data set [2] of 104 µL/min/mg. This compound showed an RLM in data set [3] of 137 µL/min/mg.
For the compound `C=CC[C@H](NC(=O)COC)[C@H](O)CN[C@H]1CC2(CCC2)Oc2c(-c3nccs3)cc(CC(C)C)cc21` [compound 212, N-((1S)-1-((1R)-1-hydroxy-2-(((4S)-6-(2-methylpropyl)-8-(1,3-thiazol-2-yl)-3,4-dihydrospiro[chromene-2,1′-cyclobutan]-4-yl)amino)ethyl)-3-buten-1-yl)-2-methoxyacetamide], the IC50 at BACE1 (read-out: BACE 1 FRET assay) came to 92 nM; in data set [1] (Homo sapiens, HEK293) it was 262 nM. Also, at CYP3A4 (CYP3A), the IC50 at 10 min was determined as 700 nM. Moreover, the HLM in data set [2] turned out to be 775 µL/min/mg. This compound also showed an RLM in data set [3] of 399 µL/min/mg.
`CCC[C@H](NC(=O)[C@@H]1CCCO1)[C@H](O)CN[C@H]1CC2(CCC2)Oc2c1cc(CC(C)(C)C)nc2Cl` [compound 224, (2S)-N-((1S)-1-((1R)-2-(((4′S)-8′-chloro-6′-(2,2-dimethylpropyl)-3′,4′-dihydrospiro[cyclobutane-1,2′-pyrano[2,3-c]pyridin]-4′-yl)amino)-1-hydroxyethyl)butyl)tetrahydro-2-furancarboxamide]: the IC50 on BACE1 (read-out: BACE 1 FRET assay) was 533 nM; in data set [1] (Homo sapiens, HEK293) it was 2840 nM.
Take `C=CC[C@H](NC(=O)C1COC(c2ccccn2)O1)[C@H](O)CNC1CC2(CCC2)Oc2ncc(CC(C)(C)C)cc21` (stereo partly drawn) [compound 242, N-((1S)-1-((1R)-2-((6′-(2,2-dimethylpropyl)-3′,4′-dihydrospiro[cyclobutane-1,2′-pyrano[2,3-b]pyridin]-4′-yl)amino)-1-hydroxyethyl)-3-buten-1-yl)-2-(2-pyridinyl)-1,3-dioxolane-4-carboxamide]: the IC50 on BACE1 (read-out: BACE 1 FRET assay) was 3830 nM; in data set [1] (Homo sapiens, HEK293), 691 nM.

For the origin of these results see US8633315B2, “Substituted hydroxyethyl amine compounds as beta-secretase modulators and methods of use” (Amgen Inc., priority 2007, dated 2014).
